Target: bee venom PLA2 (Apis mellifera, UniProt P00630)
Type: biochemical
Conditions: pH 9

bee venom PLA2, sequence (P00630 34-167 limits assumed): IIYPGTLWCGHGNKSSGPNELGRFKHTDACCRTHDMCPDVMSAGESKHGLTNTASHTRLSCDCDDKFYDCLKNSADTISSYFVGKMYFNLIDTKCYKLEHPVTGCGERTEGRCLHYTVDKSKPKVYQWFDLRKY

`CCCCC/C=C\C/C=C\CCCCCCCC(=O)O` [linoleic acid, linoleic (cis,cis-Δ^9-,Δ^12-octadecadienoic) acid] was tested, and the “inhibition of the enzymatic activity of bee venom PLA2” value was “inhibit the enzymatic activity of bee venom PLA2 in a dose-dependent manner”.

In the case of `CCCCCCCC/C=C\CCCCCCCC(=O)O` [oleic acid, oleic (cis-Δ^9-octadecenoic) acid], the “inhibition of the enzymatic activity of bee venom PLA2” value is reported as “inhibit the enzymatic activity of bee venom PLA2 in a dose-dependent manner”.

From patent publication US20080096963A1, “Use Of A Fatty Acid For Preparing A Topical Composition For Allaying Inflammatory Reaction Due To Vennemous Hymenoptera Strings” (CEREP, priority 2004, published 2008)
